The compounds below were run against ERK2 enzyme (Homo sapiens (Human), UniProt P28482) (assay: Inhibition assay of ERK (Z'-LYTE kinase assay, Ser/Thr 3 peptide substrate)). Details: In vitro ERK2 enzyme, 100 μM ATP.
Format: biochemical
Protocol: The inhibition of ERK activity by the compounds disclosed herein was determined using the Z′-LYTE kinase assay kit (Life Technologies) with a Ser/Thr 3 peptide substrate (Life Technologies) according to manufacturers' instructions. […] The IC50 values for the compounds were determined with 3-fold serial dilutions in duplicate. […] The final DMSO concentration in the assay was 1%. Final reaction volume was 20 μL/well in 384-well plates. Kinase reactions were conducted or 1 hour followed by the assay development reaction (1 hour) in a 20 ul/well in a 384 well plate format.

ERK2 enzyme, sequence (P28482 whole entry): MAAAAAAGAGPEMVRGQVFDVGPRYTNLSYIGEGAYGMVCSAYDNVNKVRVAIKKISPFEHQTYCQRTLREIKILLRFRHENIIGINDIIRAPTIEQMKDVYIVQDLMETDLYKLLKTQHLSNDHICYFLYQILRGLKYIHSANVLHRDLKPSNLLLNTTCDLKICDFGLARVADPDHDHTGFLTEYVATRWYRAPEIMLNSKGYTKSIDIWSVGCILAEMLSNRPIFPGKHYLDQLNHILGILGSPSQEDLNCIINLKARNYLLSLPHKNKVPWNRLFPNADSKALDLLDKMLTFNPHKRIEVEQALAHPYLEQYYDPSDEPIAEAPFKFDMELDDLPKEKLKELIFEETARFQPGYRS

Row | Structure (SMILES) | IC50 [nM]
1 | Cc1cc(-c2n[nH]c3cc4c(cc23)CN(Cc2ccc(C(F)(F)F)cc2)C(=O)N4)ccn1 [Compound 12] | 50 to 250
2 | Cc1cc(-c2n[nH]c3cc4[nH]c(=O)n(Cc5ccccc5)c4cc23)ccn1 [Compound 19] | < 50
3 | Cc1cc(-c2n[nH]c3cc4[nH]c(=O)n(CCc5ccccc5)c4cc23)ccn1 [Compound 20] | 50 to 250
4 | Cc1cc(-c2n[nH]c3cc4[nH]c(=O)c(Cc5ccc(F)cc5)cc4cc23)ccn1 [Compound 21] | 50 to 250
5 | Cc1cc(-c2n[nH]c3cc4[nH]c(=O)c(C(C)c5ccccc5)cc4cc23)ccn1 (centres unmarked) [Compound 22] | < 50
6 | Cc1cc(-c2n[nH]c3cc4c(cc23)CN([C@H](C)c2ccc(C#N)cc2)C(=O)N4)ccn1 [Compound 23] | < 50
7 | Cc1cc(-c2n[nH]c3cc4[nH]c(=O)n(Cc5cccc(Cl)c5)c(=O)c4cc23)ccn1 [Compound 24] | 50 to 250
8 | Cc1cc(-c2n[nH]c3cc4[nH]c(=O)n(Cc5ccccc5)c(=O)c4cc23)ccn1 [Compound 27] | < 50
9 | Cc1cc(-c2n[nH]c3cc4c(cc23)CN([C@@H]2CCCNC2)C(=O)N4)ccn1 [Compound 32] | 50 to 250
10 | Cc1cc(-c2n[nH]c3cc4c(cc23)CN([C@@H]2CCCN(C)C2)C(=O)N4)ccn1 [Compound 33] | < 50
11 | Cc1cc(-c2n[nH]c3cc4c(cc23)CN(C2CCNCC2)C(=O)N4)ccn1 [Compound 34] | 50 to 250

Results, then the compound that gave them:

Row | IC50 [nM] | Structure (SMILES)
12 | < 50 | O=C1Nc2cc3[nH]nc(-c4ccncc4)c3cc2CN1Cc1ccccc1 [Compound 1, 6-benzyl-3-(pyridin-4-yl)-1,5,6,8-tetrahydro-7H-pyrazolo[4,3-g]quinazolin-7-one]
13 | < 50 | Cc1cc(-c2n[nH]c3cc4c(cc23)CN([C@H](C)c2ccccc2)C(=O)N4)ccn1 [Compound 2, (R)-3-(2-methylpyridin-4-yl)-6-(1-phenylethyl)-5,6-dihydro-1H-pyrazolo[4,3-g]quinazolin-7(8H)-one]
14 | < 50 | O=C1Nc2cc3[nH]nc(-c4ccncc4)c3cc2CN1Cc1cccc(Cl)c1 [Compound 3]
15 | < 50 | Cc1cc(-c2n[nH]c3cc4c(cc23)CN(Cc2cccc(Cl)c2)C(=O)N4)ccn1 [Compound 4]
16 | 50 to 250 | Cc1cc(-c2n[nH]c3cc4c(cc23)CN([C@H](C)c2ccc(F)cc2)C(=O)N4)ccn1 [Compound 5]
17 | < 50 | Cc1cc(-c2n[nH]c3cc4c(cc23)CN(Cc2cc(F)cc(F)c2)C(=O)N4)ccn1 [Compound 7]
18 | < 50 | Cc1cc(-c2n[nH]c3cc4c(cc23)CN(Cc2ccc(F)c(Cl)c2)C(=O)N4)ccn1 [Compound 8]
19 | < 50 | COc1ncccc1CN1Cc2cc3c(-c4ccnc(C)c4)n[nH]c3cc2NC1=O [Compound 9]
20 | < 50 | COc1ccc(CN2Cc3cc4c(-c5ccnc(C)c5)n[nH]c4cc3NC2=O)cc1 [Compound 10]
21 | < 50 | Cc1cc(-c2n[nH]c3cc4c(cc23)CN(Cc2ccc(F)cc2F)C(=O)N4)ccn1 [Compound 11]
22 | < 50 | Cc1cc(-c2n[nH]c3cc4c(cc23)CN(Cc2ccc(F)c(F)c2)C(=O)N4)ccn1 [Compound 13]
23 | < 50 | Cc1cc(-c2n[nH]c3cc4c(cc23)CN(Cc2ccc(Cl)cc2)C(=O)N4)ccn1 [Compound 14]
24 | 50 to 250 | Cc1cc(-c2n[nH]c3cc4[nH]c(=O)n(Cc5ccc(F)c(Cl)c5)c(=O)c4cc23)ccn1 [Compound 15]
25 | < 50 | Cc1cc(-c2n[nH]c3cc4c(cc23)CN([C@H](C)c2ccc(Cl)cc2)C(=O)N4)ccn1 [Compound 16]
26 | 50 to 250 | Cc1cc(-c2n[nH]c3cc4c(cc23)CN(C2(c3ccc(F)cc3)CC2)C(=O)N4)ccn1 [Compound 17]
27 | < 50 | Cc1cc(-c2n[nH]c3cc4c(cc23)CN(CCc2ccc(F)cc2)C(=O)N4)ccn1 [Compound 18]

Row | IC50 [nM] | Structure (SMILES)
28 | 250 to 1000 | O=C1Nc2cc3[nH]nc(Br)c3cc2CN1Cc1cccc(Cl)c1 [Compound 25]
29 | < 50 | Cc1cc(-c2n[nH]c3cc4c(cc23)CN([C@H](CO)c2cccc(Cl)c2)C(=O)N4)ccn1 [Compound 26]
30 | 50 to 250 | Cc1cc(-c2n[nH]c3cc4c(cc23)CN([C@@H](C)c2cccc(Cl)c2)C(=O)N4)ccn1 [Compound 28]
31 | 250 to 1000 | O=C1Nc2cc3[nH]nc(Br)c3cc2CN1Cc1ccc(F)cc1 [Compound 29]
32 | < 50 | Cc1cc(-c2n[nH]c3cc4c(cc23)CN(Cc2ccc(F)cc2)C(=O)N4)ccn1 [Compound 30]
33 | < 50 | Cn1cc(-c2n[nH]c3cc4c(cc23)CN(Cc2ccc(F)c(Cl)c2)C(=O)N4)cn1 [Compound 31]
34 | < 50 | Cc1cc(-c2n[nH]c3cc4c(cc23)CN([C@H](C)c2cccc(Cl)c2)C(=O)N4)ccn1 [Compound 35]
35 | < 50 | COc1ccc(-c2n[nH]c3cc4c(cc23)CN(Cc2ccc(F)c(Cl)c2)C(=O)N4)cn1 [Compound 36]
36 | < 50 | COc1ncc(-c2n[nH]c3cc4c(cc23)CN(Cc2ccc(F)c(Cl)c2)C(=O)N4)cn1 [Compound 37]
37 | < 50 | COc1cc(-c2n[nH]c3cc4c(cc23)CN(Cc2ccc(F)c(Cl)c2)C(=O)N4)ccn1 [Compound 38]
38 | < 50 | Cc1cc(-c2n[nH]c3cc4c(cc23)CN(Cc2ccc(C#N)cc2)C(=O)N4)ccn1 [Compound 39]
39 | 50 to 250 | O=C1Nc2cc3[nH]nc(-c4ccc(F)cc4)c3cc2CN1Cc1ccc(F)c(Cl)c1 [Compound 40]
40 | < 50 | Cn1cc(-c2n[nH]c3cc4c(cc23)CN(Cc2ccc(F)c(Cl)c2)C(=O)N4)ccc1=O [Compound 41]
41 | 50 to 250 | O=C1Nc2cc3[nH]nc(C4CC4)c3cc2CN1Cc1ccc(F)c(Cl)c1 [Compound 42]
42 | < 50 | Cc1cc(-c2n[nH]c3cc4c(cc23)CN(CCO)C(=O)N4)ccn1 [Compound 43]

Same assay, conditions: In vitro, ERK2 enzyme 0.47 ng/μL, 100 μM ATP

Row | Structure (SMILES) | IC50 [nM]
43 | Cc1cc(-c2n[nH]c3cc4c(cc23)CN([C@@H]2CN(CC(F)(F)F)C[C@H]2C2CC2)C(=O)N4)ccn1 (mixture of isomers) [Compound 319] | 50 to 250
44 | Cc1cc(-c2n[nH]c3cc4c(cc23)CN([C@@H]2CN(CC(F)(F)F)C[C@H]2c2cccs2)C(=O)N4)ccn1 (mixture of isomers) [Compound 321] | < 50
45 | Cc1cc(-c2n[nH]c3cc4c(cc23)CN([C@@H]2CN(CC(F)(F)F)C[C@H]2C(C)C)C(=O)N4)ccn1 (mixture of isomers) [Compound 322] | 50 to 250
46 | COc1ccc(-c2n[nH]c3cc4c(cc23)CN([C@@H]2CN(C)C[C@H]2c2ccccc2)C(=O)N4)cn1 (mixture of isomers) [Compound 353] | < 50
47 | COc1cc(-c2n[nH]c3cc4c(cc23)CN([C@@H]2CN(C)C[C@H]2c2ccccc2)C(=O)N4)ccn1 (mixture of isomers) [Compound 354] | < 50
48 | COc1ncc(-c2n[nH]c3cc4c(cc23)CN([C@@H]2CN(C)C[C@H]2c2ccccc2)C(=O)N4)cn1 (mixture of isomers) [Compound 355] | < 50
49 | Cc1cc(-c2n[nH]c3cc4c(cc23)CN([C@@H]2CN(CCC#N)C[C@H]2c2ccccc2)C(=O)N4)ccn1 (mixture of isomers) [Compound 356] | < 50
50 | Cc1cc(-c2n[nH]c3cc4c(cc23)CN([C@@H]2CN(C3CCOCC3)C[C@H]2c2ccccc2)C(=O)N4)ccn1 (mixture of isomers) [Compound 359] | 50 to 250
51 | Cc1cc(-c2n[nH]c3cc4c(cc23)CN([C@@H]2CN(CC(F)F)C[C@H]2c2ccccc2)C(=O)N4)ccn1 (mixture of isomers) [Compound 362] | < 50
52 | Cc1cc(-c2n[nH]c3cc4c(cc23)CN([C@@H]2CN(CC#N)C[C@H]2c2ccccc2)C(=O)N4)ccn1 (mixture of isomers) [Compound 366] | < 50
53 | Cc1cc(-c2n[nH]c3cc4c(cc23)CN([C@@H]2CN(CCO)C[C@H]2c2ccccc2)C(=O)N4)ccn1 (mixture of isomers) [Compound 376] | < 50
54 | Cc1cc(-c2n[nH]c3cc4c(cc23)CN([C@@H]2CN(CC(F)F)C[C@H]2c2ccccc2)C(=O)N4)cc(C)n1 (mixture of isomers) [Compound 379] | < 50
55 | Cc1cc(-c2n[nH]c3cc4c(cc23)CN([C@@H]2CNC[C@H]2c2ccccc2)C(=O)N4)ccn1 (racemic) [Compound 223] | < 50
56 | Cc1cc(-c2n[nH]c3cc4c(cc23)CN([C@@H]2CN(C)C[C@H]2c2ccccc2)C(=O)N4)ccn1 (racemic) [Compound 241] | < 50
57 | CCN1C[C@@H](N2Cc3cc4c(-c5ccnc(C)c5)n[nH]c4cc3NC2=O)[C@H](c2ccccc2)C1 (racemic) [Compound 278] | < 50
58 | Cc1cc(-c2n[nH]c3cc4c(cc23)CN([C@@H]2CN(C(C)C)C[C@H]2c2ccccc2)C(=O)N4)ccn1 (racemic) [Compound 279] | < 50
59 | Cc1cc(-c2n[nH]c3cc4c(cc23)CN([C@@H]2CN(CC(F)(F)F)C[C@H]2c2ccc(F)cc2)C(=O)N4)ccn1 (racemic) [Compound 300] | < 50
60 | Cc1cc(-c2n[nH]c3cc4c(cc23)CN([C@@H]2CN(CC(F)(F)F)C[C@H]2C)C(=O)N4)ccn1 (racemic) [Compound 302] | < 50
61 | Cc1cc(-c2n[nH]c3cc4c(cc23)CN([C@@H]2CN(CC(F)(F)F)C[C@H]2c2ccccc2F)C(=O)N4)ccn1 (racemic) [Compound 311] | 50 to 250

Now from value to compound:

Row | IC50 [nM] | Structure (SMILES)
62 | 250 to 1000 | Cc1cc(-c2n[nH]c3cc4c(cc23)CN([C@@H]2CN(C)C[C@H]2C(C)C)C(=O)N4)ccn1 (mixture of isomers) [Compound 327]
63 | < 50 | Cc1cc(-c2n[nH]c3cc4c(cc23)CN([C@@H]2CN(C)C[C@H]2c2ccccc2)C(=O)N4)cc(C)n1 (racemic) [Compound 248]
64 | 50 to 250 | Cc1cc(-c2n[nH]c3cc4c(cc23)CN([C@@H]2CN(C)C[C@H]2c2ccc(F)cc2)C(=O)N4)cc(C)n1 (racemic) [Compound 305]
65 | < 50 | Cc1cc(-c2n[nH]c3cc4c(cc23)CN([C@@H]2CN(C)C[C@H]2c2ccccc2F)C(=O)N4)cc(C)n1 (racemic) [Compound 306]
